PubChem BioAssay AID330 (DTP/NCI, 2004)
Inconclusive results and toxic doses are left out. The calls were made as follows: active = survival T/C of 150% or more; inactive = T/C below 125% in these data.

Tested on: P388 leukemia ip, CD2F1 mice, survival T/C
Assay: NCI In Vivo Anticancer Drug Screen. Data for tumor model P388 Leukemia (intraperitoneal) in CD2F1 (CDF1) mice
Settings: endpoint: median survival time, higher = longer survival
Procedure, shortened: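 Mice carrying the transplanted tumor received test compound or vehicle. Survival was recorded in each group, and the value is the treated-group measurement divided by that of the vehicle-treated control group.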

[1] = dose: 50.0 mg/kg/injection, schedule: Q01DX005 (ip), vehicle: saline with Tween-80
[2] = dose: 100.0 mg/kg/injection, schedule: Q01DX005 (ip), vehicle: saline with Tween-80
[3] = dose: 200.0 mg/kg/injection, schedule: Q01DX005 (ip), vehicle: saline with Tween-80
[4] = dose: 50.0 mg/kg/injection, schedule: Q01DX005 (ip), vehicle: saline
[5] = dose: 100.0 mg/kg/injection, schedule: Q01DX005 (ip), vehicle: saline
[6] = dose: 50.0 mg/kg/injection, schedule: Q01DX009 (ip), vehicle: saline with Tween-80
[7] = dose: 100.0 mg/kg/injection, schedule: Q01DX009 (ip), vehicle: saline with Tween-80
[8] = dose: 200.0 mg/kg/injection, schedule: Q01DX009 (ip), vehicle: saline with Tween-80
[9] = dose: 60.0 mg/kg/injection, schedule: Q01DX005 (ip), vehicle: saline with Tween-80
[10] = dose: 120.0 mg/kg/injection, schedule: Q01DX005 (ip), vehicle: saline with Tween-80
[11] = dose: 50.0 mg/kg/injection, schedule: Q01DX005 (ip), vehicle: Klucel (hydroxypropylcellulose) (HPC)
[12] = dose: 100.0 mg/kg/injection, schedule: Q01DX005 (ip), vehicle: Klucel (hydroxypropylcellulose) (HPC)
[13] = dose: 200.0 mg/kg/injection, schedule: Q01DX005 (ip), vehicle: Klucel (hydroxypropylcellulose) (HPC)
[14] = dose: 240.0 mg/kg/injection, schedule: Q01DX005 (ip), vehicle: saline with Tween-80
[15] = dose: 60.0 mg/kg/injection, schedule: Q01DX005 (ip), vehicle: Klucel (hydroxypropylcellulose) (HPC)
[16] = dose: 120.0 mg/kg/injection, schedule: Q01DX005 (ip), vehicle: Klucel (hydroxypropylcellulose) (HPC)

Measured: T/C

CC1=C(C(=O)/C=C/c2ccccc2)C(=O)c2ccccc2C1=O
inactive: [1] 95 % of control | [2] 87 % of control | [3] 105 % of control

CC1(C)CC2CCCCN2CO1 (centres undefined)
inactive: [4] 112 % of control | [5] 108 % of control

OCCCN(CCCO)CCN(CCCO)CCCO
inactive: dose: 100.0 mg/kg/injection, schedule: Q04DX003 (ip), vehicle: saline 97 % of control | dose: 200.0 mg/kg/injection, schedule: Q04DX003 (ip), vehicle: saline 97 % of control | dose: 400.0 mg/kg/injection, schedule: Q04DX003 (ip), vehicle: saline 87 % of control

CCCCC1(CN(C)C)C(=O)N(C)C(=O)N(C2CCCCC2)C1=O (centres undefined)
inactive: [6] 100 % of control | [7] 102 % of control | [8] 99 % of control

CCOC(=O)c1cc(/C=C/c2ccc(Cl)cc2)on1
inactive: [9] 91 % of control | [10] 90 % of control

CCC1CC(C)C(O)/C=C/C=C/CC(C)OC(=O)CC(O)C(OC)C1OC1OC(C)CC(O)(C(C)=O)C1O (centres undefined)
inactive: dose: 25.0 mg/kg/injection, schedule: Q01DX005 (ip), vehicle: Klucel (hydroxypropylcellulose) (HPC) 104 % of control | [11] 104 % of control | [12] 102 % of control | [13] 101 % of control

Cc1ccc2c(c1)C=CC(C#N)N2C(=O)OCc1ccccc1 (centres undefined)
inactive: dose: 100.0 mg/kg/injection, schedule: Q04DX003 (ip), vehicle: saline with Tween-80 90 % of control | dose: 200.0 mg/kg/injection, schedule: Q04DX003 (ip), vehicle: saline with Tween-80 95 % of control

CC1(C)OC2OC3C(Br)C(=O)OC3C2O1 (centres undefined)
inactive: [9] 90 % of control | [10] 94 % of control | [14] 97 % of control

CCN(CC)CCNc1cc(OC)c(C)c2cccnc12
inactive: [4] 104 % of control | [5] 109 % of control

COc1cccc2c1C(=O)c1nccc3cc4c(c-2c13)OCO4
inactive: dose: 30.0 mg/kg/injection, schedule: Q01DX005 (ip), vehicle: Klucel (hydroxypropylcellulose) (HPC) 91 % of control | [15] 90 % of control | [16] 110 % of control

CN(C)CCCNc1nc(NCCCN(C)C)c2nc(-c3ccccc3)c(-c3ccccc3)nc2n1
inactive: dose: 12.5 mg/kg/injection, schedule: Q01DX005 (ip), vehicle: saline with Tween-80 97 % of control | dose: 25.0 mg/kg/injection, schedule: Q01DX005 (ip), vehicle: saline with Tween-80 88 % of control | [1] 88 % of control

c1cnc(NC(Nc2ncccn2)C2CCCCC2)nc1
inactive: [15] 100 % of control | [16] 100 % of control | dose: 240.0 mg/kg/injection, schedule: Q01DX005 (ip), vehicle: Klucel (hydroxypropylcellulose) (HPC) 94 % of control

CN(CCC(CCC(=O)O)(C(=O)O)c1ccccc1)Cc1ccccc1 (centres undefined)
inactive: [11] 92 % of control | [12] 100 % of control | [13] 98 % of control

CCCCOC(=O)C1CSSCC(NC(C)=O)C(=O)N1 (centres undefined)
inactive: dose: 17.5 mg/kg/injection, schedule: Q01DX005 (ip), vehicle: Klucel (hydroxypropylcellulose) (HPC) 101 % of control | dose: 35.0 mg/kg/injection, schedule: Q01DX005 (ip), vehicle: Klucel (hydroxypropylcellulose) (HPC) 102 % of control | dose: 70.0 mg/kg/injection, schedule: Q01DX005 (ip), vehicle: Klucel (hydroxypropylcellulose) (HPC) 108 % of control

COC(=O)C(CC(C)C)NC(=O)C(Cc1c[nH]c2ccccc12)NC(=O)OC(C)(C)C (centres undefined)
inactive: dose: 10.7 mg/kg/injection, schedule: Q01DX009 (ip), vehicle: other 100 % of control | dose: 21.3 mg/kg/injection, schedule: Q01DX009 (ip), vehicle: other 93 % of control | dose: 42.5 mg/kg/injection, schedule: Q01DX009 (ip), vehicle: other 93 % of control | dose: 85.0 mg/kg/injection, schedule: Q01DX009 (ip), vehicle: other 93 % of control | dose: 170.0 mg/kg/injection, schedule: Q01DX009 (ip), vehicle: other 98 % of control

CC1=CC(=O)C(=Ic2ccccc2)C(=O)O1
inactive: [11] 100 % of control | [12] 98 % of control | [13] 104 % of control

CCN(Cc1c(C)nc2ccc(N(C)C)cc2c1Cl)CN(CC)Cc1c(C)nc2ccc(N(C)C)cc2c1Cl
inactive: dose: 100.0 mg/kg/injection, schedule: Q01DX002 (ip), vehicle: saline with Tween-80 100 % of control | dose: 200.0 mg/kg/injection, schedule: Q01DX002 (ip), vehicle: saline with Tween-80 94 % of control | dose: 400.0 mg/kg/injection, schedule: Q01DX002 (ip), vehicle: saline with Tween-80 98 % of control

CC(=O)OCCOCNC(=S)NCc1ccco1
inactive: [9] 106 % of control | [10] 102 % of control | [14] 98 % of control

O=[N+]([O-])c1cc(Cl)ccc1-c1ccccc1
inactive: dose: 100.0 mg/kg/injection, schedule: Q01DX009 (ip), vehicle: Klucel (hydroxypropylcellulose) (HPC) 87 % of control | dose: 200.0 mg/kg/injection, schedule: Q01DX009 (ip), vehicle: Klucel (hydroxypropylcellulose) (HPC) 93 % of control | dose: 400.0 mg/kg/injection, schedule: Q01DX009 (ip), vehicle: Klucel (hydroxypropylcellulose) (HPC) 101 % of control

CC1=C(c2ccccc2)OC(c2ccccc2)=C[P+]1(c1ccccc1)c1ccccc1
inactive: dose: 1.56 mg/kg/injection, schedule: Q01DX005 (ip), vehicle: saline 105 % of control | dose: 3.12 mg/kg/injection, schedule: Q01DX005 (ip), vehicle: saline 110 % of control

CCSC(C(O)C(O)C(O)C(O)CO)n1cnc2c(=S)nc[nH]c21 (centres undefined)
inactive: dose: 25.0 mg/kg/injection, schedule: Q01DX009 (ip), vehicle: water 97 % of control | dose: 50.0 mg/kg/injection, schedule: Q01DX009 (ip), vehicle: water 94 % of control | dose: 100.0 mg/kg/injection, schedule: Q01DX009 (ip), vehicle: water 105 % of control | dose: 200.0 mg/kg/injection, schedule: Q01DX009 (ip), vehicle: water 105 % of control | dose: 400.0 mg/kg/injection, schedule: Q01DX009 (ip), vehicle: water 96 % of control

O=C1CCCCC1C1(O)C(=O)Nc2ccccc21 (centres undefined)
inactive: dose: 60.0 mg/kg/injection, schedule: Q01DX005 (ip), vehicle: saline 98 % of control | dose: 120.0 mg/kg/injection, schedule: Q01DX005 (ip), vehicle: saline 89 % of control | dose: 240.0 mg/kg/injection, schedule: Q01DX005 (ip), vehicle: saline 89 % of control

CC1(C)OC2OC(COC(=O)c3ccccc3)C(OS(C)(=O)=O)C2O1 (centres undefined)
inactive: [1] 103 % of control | [2] 100 % of control | [3] 102 % of control

NNc1ncnc2nc[nH]c12
inactive: dose: 6.25 mg/kg/injection, schedule: Q01DX009 (ip), vehicle: saline sonified 95 % of control | dose: 6.25 mg/kg/injection, schedule: Q01DX009 (ip), vehicle: saline 100 % of control | dose: 6.25 mg/kg/injection, schedule: Q01DX009 (ip), vehicle: suspension in saline 111 % of control | dose: 12.5 mg/kg/injection, schedule: Q01DX009 (ip), vehicle: saline sonified 100 % of control | dose: 12.5 mg/kg/injection, schedule: Q01DX009 (ip), vehicle: saline 100 % of control | dose: 12.5 mg/kg/injection, schedule: Q01DX009 (ip), vehicle: suspension in saline 100 % of control | dose: 25.0 mg/kg/injection, schedule: Q01DX009 (ip), vehicle: saline sonified 120 % of control | dose: 25.0 mg/kg/injection, schedule: Q01DX009 (ip), vehicle: saline 106 % of control | dose: 25.0 mg/kg/injection, schedule: Q01DX009 (ip), vehicle: suspension in saline 103 % of control | dose: 50.0 mg/kg/injection, schedule: Q01DX009 (ip), vehicle: suspension in saline 119 % of control | dose: 100.0 mg/kg/injection, schedule: Q04DX003 (ip), vehicle: saline sonified 109 % of control | dose: 200.0 mg/kg/injection, schedule: Q04DX003 (ip), vehicle: saline sonified 90 % of control

CNc1ccccc1C(=O)NNC(=O)Nc1ccc(SC)cc1
inactive: [6] 103 % of control | [7] 97 % of control | [8] 100 % of control
